Results published in PubChem BioAssay (NCI).
Several values for one entry are separate records, joined by “and”; a condition that tells them apart may be missing. Identical values can stand only once.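 Test compounds were applied to cells in 96-well plates for 48 hours at 5 doses. Here, GI50 denotes the concentration required for 50% inhibition of growth. TGI: concentration producing complete growth inhibition.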

Assays:
Assay in all cases: NCI tumour cell line growth inhibition, 48 h
SK-MEL-28 melanoma = test system: SK-MEL-28 melanoma
HL-60(TB) leukemia = test system: HL-60(TB) leukemia
HS 578T breast = test system: HS 578T breast
A498 renal = test system: A498 renal
RXF 393 renal = test system: RXF 393 renal
IGROV1 ovarian = test system: IGROV1 ovarian
KM12 colon = test system: KM12 colon
SF-295 CNS = test system: SF-295 CNS
CCRF-CEM leukemia = test system: CCRF-CEM leukemia
NCI-H226 lung = test system: NCI-H226 lung
HT29 colon = test system: HT29 colon
KM20L2 colon = test system: KM20L2 colon
MCF7 breast = test system: MCF7 breast
HOP-62 NSCLC = test system: HOP-62 NSCLC
SF-268 CNS = test system: SF-268 CNS
NCI-H522 lung = test system: NCI-H522 lung
LOX IMVI melanoma = test system: LOX IMVI melanoma
DMS 273 small cell lung = test system: DMS 273 small cell lung
MOLT-4 leukemia = test system: MOLT-4 leukemia
NCI-H460 lung = test system: NCI-H460 lung
UACC-257 melanoma = test system: UACC-257 melanoma
M19-MEL melanoma = test system: M19-MEL melanoma
UO-31 renal = test system: UO-31 renal
NCI-H23 lung = test system: NCI-H23 lung
PC-3 prostate = test system: PC-3 prostate
NCI/ADR-RES ovarian = test system: NCI/ADR-RES ovarian
A549 NSCLC = test system: A549 NSCLC
MDA-MB-231 breast = test system: MDA-MB-231 breast
RXF-631 renal = test system: RXF-631 renal
SN12K1 renal = test system: SN12K1 renal
HOP-18 NSCLC = test system: HOP-18 NSCLC
SNB-19 CNS = test system: SNB-19 CNS
P388/ADR leukemia = test system: P388/ADR leukemia
T-47D breast = test system: T-47D breast
MDA-N = test system: MDA-N
OVCAR-3 ovarian = test system: OVCAR-3 ovarian
SN12C renal = test system: SN12C renal
EKVX NSCLC = test system: EKVX NSCLC
RPMI-8226 leukemia = test system: RPMI-8226 leukemia
TK-10 renal = test system: TK-10 renal
COLO 205 colon = test system: COLO 205 colon
HCT-116 colon = test system: HCT-116 colon
P388 leukemia = test system: P388 leukemia
OVCAR-5 ovarian = test system: OVCAR-5 ovarian
HCT-15 colon = test system: HCT-15 colon
SK-MEL-5 melanoma = test system: SK-MEL-5 melanoma
ACHN renal = test system: ACHN renal
SNB-78 CNS = test system: SNB-78 CNS
MALME-3M melanoma = test system: MALME-3M melanoma
XF 498 CNS = test system: XF 498 CNS
CAKI-1 renal = test system: CAKI-1 renal
OVCAR-4 ovarian = test system: OVCAR-4 ovarian
MDA-MB-435 = test system: MDA-MB-435
SF-539 CNS = test system: SF-539 CNS
DMS 114 small cell lung = test system: DMS 114 small cell lung
OVCAR-8 ovarian = test system: OVCAR-8 ovarian
DLD-1 colon = test system: DLD-1 colon
K-562 leukemia = test system: K-562 leukemia
SNB-75 CNS = test system: SNB-75 CNS
SW-620 colon = test system: SW-620 colon
SK-OV-3 ovarian = test system: SK-OV-3 ovarian
HOP-92 NSCLC = test system: HOP-92 NSCLC
SK-MEL-2 melanoma = test system: SK-MEL-2 melanoma
U251 CNS = test system: U251 CNS
HCC-2998 colon = test system: HCC-2998 colon
UACC-62 melanoma = test system: UACC-62 melanoma

For `CC[C@@]1(O)C(=O)OCc2c1cc1n(c2=O)Cc2cc3c(CN(C)C)c(O)ccc3nc2-1`, the GI50 (SK-MEL-28 melanoma) was 0.299 µM and 1.36 µM, the GI50 (HL-60(TB) leukemia) was 0.0103 µM and 0.00542 µM and the GI50 (HS 578T breast) was 1.27 µM and 5.8 µM and 1.88 µM. The TGI (HS 578T breast) was 96.6 µM and 12.2 µM and 39.6 µM, the GI50 (A498 renal) was 0.0205 µM and 0.0299 µM and the GI50 (RXF 393 renal) was 0.0188 µM and 0.0182 µM and 0.0775 µM. For the same compound, the GI50 (IGROV1 ovarian) was 0.231 µM and 0.116 µM and 0.392 µM, the GI50 (KM12 colon) was 0.15 µM and 0.413 µM and 0.35 µM and the TGI (KM12 colon) was 7.58 µM and 15.1 µM and 12.2 µM. For the same compound, the GI50 (SF-295 CNS) was < 0.01 µM and 0.0104 µM and 0.0304 µM, the GI50 (CCRF-CEM leukemia) was < 0.01 µM and 0.0032 µM and the GI50 (NCI-H226 lung) was 0.0153 µM and 0.0964 µM and 0.0626 µM. For the same compound, the TGI (NCI-H226 lung) was 1.28 µM [middle of 4 runs], the GI50 (HT29 colon) was 0.0669 µM and 0.0589 µM and 0.24 µM and the TGI (HT29 colon) was 8.1 µM and 20.2 µM and 6.7 µM. The GI50 (KM20L2 colon) was 2.22 µM, the TGI (KM20L2 colon) was 8.27 µM and the GI50 (MCF7 breast) was under 0.01 µM. For the same compound, the GI50 (HOP-62 NSCLC) was 0.0102 µM and 0.00621 µM and 0.0163 µM, the GI50 (SF-268 CNS) was < 0.01 µM and 0.00517 µM and 0.0175 µM and the GI50 (NCI-H522 lung) was < 0.025 µM and 0.0206 µM and 0.0416 µM. The TGI (LOX IMVI melanoma) was 362 nM [middle of 4 runs], the GI50 (DMS 273 small cell lung) was 0.0372 µM and the TGI (DMS 273 small cell lung) was 1.09 µM and 0.609 µM. The GI50 (MOLT-4 leukemia) was < 0.01 µM and 0.00317 µM, the GI50 (NCI-H460 lung) was < 0.01 µM and 0.00456 µM and 0.021 µM and the TGI (NCI-H460 lung) was 0.499 µM and 1.58 µM and 0.222 µM. For the same compound, the GI50 (UACC-257 melanoma) was 0.106 µM and 0.0677 µM and 0.297 µM, the GI50 (M19-MEL melanoma) was 0.603 µM and the TGI (M19-MEL melanoma) was 5.17 µM and 1.36 µM. For the same compound, the GI50 (UO-31 renal) was 0.0169 µM and 0.118 µM and 0.0299 µM, the TGI (UO-31 renal) was 0.273 µM and 1.89 µM and 0.607 µM and the GI50 (NCI-H23 lung) was 0.0088 µM and 0.0362 µM. For the same compound, the GI50 (PC-3 prostate) was 0.0425 µM and 0.26 µM, the TGI (PC-3 prostate) was > 90.1 µM and 14.8 µM and 35 µM and the GI50 (NCI/ADR-RES ovarian) was 0.0737 µM and 0.355 µM and 0.105 µM. The TGI (NCI/ADR-RES ovarian) was 3.22 µM and 19.7 µM and 4.78 µM, the GI50 (A549 NSCLC) was 0.0545 µM and 0.08 µM and the GI50 (MDA-MB-231 breast) was 0.847 µM and 0.393 µM and 3.22 µM. The TGI (RXF-631 renal) was 30.1 µM, the TGI (SN12K1 renal) was 1.19 µM and the GI50 (HOP-18 NSCLC) was 0.132 µM. For the same compound, the TGI (HOP-18 NSCLC) was 89 µM, the GI50 (SNB-19 CNS) was < 0.0131 µM and 0.026 µM and the TGI (P388/ADR leukemia) was 2.77 µM. For the same compound, the GI50 (T-47D breast) was < 0.0117 µM and 0.0189 µM and 0.0186 µM, the GI50 (MDA-N) was 0.0241 µM and 0.119 µM and 0.0221 µM and the TGI (MDA-N) was 0.777 µM and 5.2 µM and 0.902 µM. The GI50 (OVCAR-3 ovarian) was 0.107 µM and 0.124 µM and 0.551 µM, the TGI (OVCAR-3 ovarian) was 1.37 µM and 7.71 µM and 2.12 µM and the GI50 (SN12C renal) was < 0.01 µM and 0.00456 µM and 0.0248 µM. The GI50 (EKVX NSCLC) was 0.452 µM and 0.468 µM and 2.16 µM, the GI50 (RPMI-8226 leukemia) was 0.163 µM and 0.0818 µM and 0.435 µM and the TGI (TK-10 renal) was 14.2 µM and 64.8 µM and 88.7 µM. For the same compound, the GI50 (COLO 205 colon) was 0.384 µM and 0.089 µM and 0.855 µM, the TGI (COLO 205 colon) was 4.85 µM [middle of 4 runs] and the GI50 (HCT-116 colon) was 0.0681 µM. The TGI (HCT-116 colon) was 18.9 µM and 11.7 µM, the TGI (P388 leukemia) was 2.66 µM and the GI50 (OVCAR-5 ovarian) was 0.168 µM and 0.217 µM and 0.407 µM. The GI50 (HCT-15 colon) was 0.304 µM and 0.0813 µM and 0.67 µM, the GI50 (SK-MEL-5 melanoma) was 0.0197 µM and 0.0191 µM and 0.0448 µM and the GI50 (ACHN renal) was < 0.01 µM and 0.00474 µM and 0.0188 µM. For the same compound, the GI50 (SNB-78 CNS) was 0.0867 µM, the TGI (SNB-78 CNS) was 2.49 µM and the GI50 (MALME-3M melanoma) was 0.0881 µM and 0.157 µM and 0.39 µM. The GI50 (XF 498 CNS) was 0.585 µM, the GI50 (CAKI-1 renal) was < 0.01 µM and 0.00506 µM and the GI50 (OVCAR-4 ovarian) was 0.319 µM and 0.812 µM and 0.571 µM. For the same compound, the GI50 (MDA-MB-435) was 0.0713 µM and 0.108 µM and 0.0243 µM, the GI50 (SF-539 CNS) was < 0.01 µM and 0.00383 µM and 0.0215 µM and the GI50 (DMS 114 small cell lung) was under 0.0351 µM. The TGI (DMS 114 small cell lung) was 0.691 µM and 0.162 µM.

`CCN(CC)CCCC(C)Nc1c2ccc(Cl)cc2nc2cc(Cl)ccc12` (centres undefined) was tested, and the TGI (SK-MEL-28 melanoma) was 15.8 µM, the TGI (HL-60(TB) leukemia) was 4.6 µM and the TGI (A498 renal) was 21.9 µM. The TGI (RXF 393 renal) was 13.2 µM, the TGI (IGROV1 ovarian) was 19.5 µM and the TGI (KM12 colon) was 9.29 µM. The TGI (OVCAR-8 ovarian) was 19.3 µM, the TGI (SF-295 CNS) was 8.49 µM and the TGI (CCRF-CEM leukemia) was 7.47 µM. It also gave a TGI (NCI-H226 lung) of 9.76 µM, a TGI (HT29 colon) of 8.28 µM and a TGI (KM20L2 colon) of 11.6 µM. For the same compound, the TGI (MCF7 breast) was 9.49 µM, the TGI (HOP-62 NSCLC) was 22.1 µM and the TGI (SF-268 CNS) was 16.3 µM. The TGI (NCI-H522 lung) was 17.5 µM, the TGI (LOX IMVI melanoma) was 6.94 µM and the TGI (DLD-1 colon) was 9.38 µM. The TGI (DMS 273 small cell lung) was 10.3 µM, the TGI (MOLT-4 leukemia) was 5.31 µM and the TGI (NCI-H460 lung) was 12 µM. For the same compound, the TGI (UACC-257 melanoma) was 8.87 µM, the TGI (M19-MEL melanoma) was 9.97 µM and the TGI (UO-31 renal) was 11.5 µM. It also gave a TGI (NCI-H23 lung) of 20.8 µM, a TGI (A549 NSCLC) of 18.1 µM and a TGI (SN12K1 renal) of 8.47 µM. It also gave a TGI (K-562 leukemia) of 5.05 µM, a TGI (HOP-18 NSCLC) of 18.1 µM and a TGI (SNB-19 CNS) of 40.8 µM. For the same compound, the TGI (P388/ADR leukemia) was 3.48 µM, the TGI (OVCAR-3 ovarian) was 13.4 µM and the TGI (SN12C renal) was 17.3 µM. The TGI (EKVX NSCLC) was 29.8 µM, the TGI (SNB-75 CNS) was 22.7 µM and the TGI (RPMI-8226 leukemia) was 5.11 µM. For the same compound, the TGI (SW-620 colon) was 12.5 µM, the TGI (SK-OV-3 ovarian) was 21.9 µM and the TGI (COLO 205 colon) was 5.01 µM. It also gave a TGI (HCT-116 colon) of 7.56 µM, a TGI (P388 leukemia) of 3.58 µM and a TGI (OVCAR-5 ovarian) of 21.2 µM. It also gave a TGI (HOP-92 NSCLC) of 9.64 µM, a TGI (HCT-15 colon) of 9.85 µM and a TGI (SK-MEL-5 melanoma) of 10 µM. For the same compound, the TGI (SNB-78 CNS) was 26.6 µM, the TGI (MALME-3M melanoma) was 25.5 µM and the TGI (XF 498 CNS) was 9.64 µM. It also gave a TGI (SK-MEL-2 melanoma) of 29.2 µM, a TGI (CAKI-1 renal) of 10.7 µM and a TGI (OVCAR-4 ovarian) of 9.68 µM. The TGI (U251 CNS) was 14.3 µM, the TGI (HCC-2998 colon) was 5.49 µM and the TGI (UACC-62 melanoma) was 16.1 µM. It also gave a TGI (SF-539 CNS) of 15.6 µM and a TGI (DMS 114 small cell lung) of 16.6 µM.
